Columns and labels:
[1] = molecular target: human Gal-3 (hGal-3) (Homo sapiens (Human), UniProt P17931); assay: Competitive binding assay: binding of biotinylated hGal-3 to microplate-adsorbed asialofetuin (ASF); settings: Activity on hGal-3; mean values of several measurements
Procedure: (§1) Evaluation of Compound Inhibitory Activity (IC50)
(§2) The inhibitory activity of compounds is determined in competitive binding assays. This spectrophotometric assay measures the binding of biotinylated human Gal-3 (hGal-3) or human Gal-1 (hGal-1), respectively, to a microplate-adsorbed glycoprotein, asialofetuin (ASF) (Proc Natl Acad Sci USA. 2013 Mar. 26; 110(13):5052-7.). Alternatively, and preferably, a human Gal-1 version in which all six cysteines are substituted by serines may be used.
(§3) Briefly, compounds are serially diluted in DMSO (working dilutions). ASF-coated 384 well plates are supplemented with 22.8 μL/well of biotinylated hGal-3 or hGal-1 in assay buffer (i.e. 300-1000 ng/mL biotinylated hGal-3 or hGal-1) to which 1.2 μL of compound working dilutions are added and mixed.
(§4) Plates are incubated for 3 hours at 4° C., then washed with cold assay buffer (3×50 uL), incubated for 1 hour with 25 μL/well of a streptavidin-peroxidase solution (diluted in assay buffer to 80 ng/mL) at 4° C., followed by further washing steps with assay buffer (3×50 uL). Finally, 25 μL/well of ABTS substrate is added.
(§5) The calculated IC50 values may fluctuate depending on the daily assay performance. Fluctuations of this kind are known to those skilled in the art. IC50 values from several measurements are given as mean values.

[2] = molecular target: human Gal-1 (hGal-1); assay: Competitive binding assay: binding of biotinylated hGal-1 to microplate-adsorbed asialofetuin (ASF); settings: Activities on hGal-1; mean values of several measurements
human Gal-1 (hGal-1), sequence (P09382 2-135 limits assumed): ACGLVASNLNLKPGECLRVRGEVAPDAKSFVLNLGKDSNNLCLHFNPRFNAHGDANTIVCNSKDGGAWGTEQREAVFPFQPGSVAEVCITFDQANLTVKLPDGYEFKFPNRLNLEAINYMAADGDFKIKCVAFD
Procedure: as §1, §2, §3, §4, §5

human Gal-3 (hGal-3), sequence (P17931 whole entry): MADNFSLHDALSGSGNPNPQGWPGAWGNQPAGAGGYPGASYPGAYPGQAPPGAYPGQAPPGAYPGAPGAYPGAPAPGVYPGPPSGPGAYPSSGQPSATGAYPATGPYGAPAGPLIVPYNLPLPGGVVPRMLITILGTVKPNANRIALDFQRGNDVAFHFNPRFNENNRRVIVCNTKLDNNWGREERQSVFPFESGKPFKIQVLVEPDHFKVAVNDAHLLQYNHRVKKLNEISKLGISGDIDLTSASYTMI

SMILES	IC50 [1]	IC50 [2]
CO[C@@H]1[C@@H](n2cc(-c3cc(F)c(F)c(F)c3)nn2)[C@@H](O)[C@@H](CO)O[C@@H]1CC1CN(C2CCN(C(=O)CC(C)(C)C)CC2)C(=O)O1 (mixture of isomers) [Example 5.19, (RS)-3-(1-(3,3-dimethylbutanoyl)piperidin-4-yl)-5-(((2R,3R,4S,5R,6R)-5-hydroxy-6-(hydroxymethyl)-3-methoxy-4-(4-(3,4,5-trifluorophenyl)-1H-1,2,3-triazol-1-yl)tetrahydro-2H-pyran-2-yl)methyl)oxazolidin-2-one]	100 nM	1370 nM
CO[C@@H]1[C@@H](n2cc(-c3cc(F)c(F)c(F)c3)nn2)[C@@H](O)[C@@H](CO)O[C@@H]1CC1CN(C2CCN(S(=O)(=O)C(F)(F)F)CC2)C(=O)O1 (mixture of isomers) [Example 5.20, (RS)-5-(((2R,3R,4S,5R,6R)-5-hydroxy-6-(hydroxymethyl)-3-methoxy-4-(4-(3,4,5-trifluorophenyl)-1H-1,2,3-triazol-1-yl)tetrahydro-2H-pyran-2-yl)methyl)-3-(1-((trifluoromethyl)sulfonyl)piperidin-4-yl)oxazolidin-2-one]	140 nM	2310 nM
CO[C@@H]1[C@@H](n2cc(-c3cc(F)c(F)c(F)c3)nn2)[C@@H](O)[C@@H](CO)O[C@@H]1C[C@@H]1CN(C2CCN([S@+]([O-])C(C)(C)C)CC2)C(=O)O1 (mixture of isomers) [Example 5.21, (RS)-3-((RS)-1-(tert-butylsulfinyl)piperidin-4-yl)-5-(((2R,3R,4S,5R,6R)-5-hydroxy-6-(hydroxymethyl)-3-methoxy-4-(4-(3,4,5-trifluorophenyl)-1H-1,2,3-triazol-1-yl)tetrahydro-2H-pyran-2-yl)methyl)oxazolidin-2-one]	350 nM	8680 nM
O=c1cc(C2=NOC(C[C@H]3O[C@H](CO)[C@H](O)[C@H](n4cc(-c5cc(F)c(F)c(F)c5)nn4)[C@H]3O)C2)cc[nH]1 (mixture of isomers) [Example 2.03]	300 nM	550 nM
CO[C@@H]1[C@@H](n2cc(-c3cc(F)c(F)c(F)c3)nn2)[C@@H](O)[C@@H](CO)O[C@@H]1Cc1cc(C2CCN(C(C)=O)C2)on1 (mixture of isomers) [Example 2.09]	660 nM	8380 nM
CO[C@@H]1[C@@H](n2cc(-c3cc(F)c(F)c(F)c3)nn2)[C@@H](O)[C@@H](CO)O[C@@H]1Cc1cc(C2(O)CCCN(C(C)=O)CC2)on1 (mixture of isomers) [Example 2.10]	450 nM	4470 nM
COc1ccc(C2=NO[C@H](C[C@H]3O[C@H](CO)[C@H](O)[C@H](n4cc(-c5cc(F)c(F)c(F)c5)nn4)[C@H]3O)C2)cc1 [Ex 1.03]	310 nM	5450 nM
COc1ccc(C2=NO[C@@H](C[C@H]3O[C@H](CO)[C@H](O)[C@H](n4cc(-c5cc(F)c(F)c(F)c5)nn4)[C@H]3O)C2)cc1 [Ex 1.04]	580 nM	> 100000 nM

The remaining molecules from weak to strong by IC50 [1], led by results:

IC50 [1]	IC50 [2]	SMILES
1240 nM	11800 nM	COC1CCC(N2C[C@H](C[C@H]3O[C@H](CO)[C@H](O)[C@H](n4cc(-c5cc(F)c(F)c(F)c5)nn4)[C@H]3OC)OC2=O)CC1 (mixture of isomers) [Example 5.26, (RS)-5-(((2R,3R,4S,5R,6R)-5-hydroxy-6-(hydroxymethyl)-3-methoxy-4-(4-(3,4,5-trifluorophenyl)-1H-1,2,3-triazol-1-yl)tetrahydro-2H-pyran-2-yl)methyl)-3-((1s,4S)-4-methoxycyclohexyl)oxazolidin-2-one]
740 nM	12700 nM	COC1CCC(N2C[C@@H](C[C@H]3O[C@H](CO)[C@H](O)[C@H](n4cc(-c5cc(F)c(F)c(F)c5)nn4)[C@H]3OC)OC2=O)CC1 (mixture of isomers) [Example 5.25, (RS)-5-(((2R,3R,4S,5R,6R)-5-hydroxy-6-(hydroxymethyl)-3-methoxy-4-(4-(3,4,5-trifluorophenyl)-1H-1,2,3-triazol-1-yl)tetrahydro-2H-pyran-2-yl)methyl)-3-((1r,4R)-4-methoxycyclohexyl)oxazolidin-2-one]
490 nM	53900 nM	COc1ccc(C2=NOC(C[C@H]3O[C@H](CO)[C@H](O)[C@H](n4cc(-c5cc(F)c(F)c(F)c5)nn4)[C@H]3O)C2)cc1 (stereo partly drawn) [Ex 1.02]
320 nM	6840 nM	CC(=O)O[C@@H]1[C@@H](n2cc(-c3cc(F)c(F)c(F)c3)nn2)[C@@H](O)[C@@H](CO)O[C@@H]1CC1CC(C2CCNCC2)=NO1 (mixture of isomers) [Example 3.14, (2R,3R,4S,5R,6R)-5-hydroxy-6-(hydroxymethyl)-2-(((RS)-3-(piperidin-4-yl)-4,5-dihydroisoxazol-5-yl)methyl)-4-(4-(3,4,5-trifluorophenyl)-1H-1,2,3-triazol-1-yl)tetrahydro-2H-pyran-3-yl acetate]
290 nM	1810 nM	CO[C@@H]1[C@@H](n2cc(-c3cc(F)c(F)c(F)c3)nn2)[C@@H](O)[C@@H](CO)O[C@@H]1CN1CC(C2CCN(C(=O)OC(C)(C)C)CC2)OC1=O (mixture of isomers) [Example 5.24, tert-butyl 4-((RS)-3-(((2R,3R,4S,5R,6R)-5-hydroxy-6-(hydroxymethyl)-3-methoxy-4-(4-(3,4,5-trifluorophenyl)-1H-1,2,3-triazol-1-yl)tetrahydro-2H-pyran-2-yl)methyl)-2-oxooxazolidin-5-yl)piperidine-1-carboxylate]
250 nM	5080 nM	O=c1ccc(C2=NOC(C[C@H]3O[C@H](CO)[C@H](O)[C@H](n4cc(-c5cc(F)c(F)c(F)c5)nn4)[C@H]3O)C2)c[nH]1 (mixture of isomers) [Example 2.02]
240 nM	260 nM	CO[C@@H]1[C@@H](n2cc(-c3cc(F)c(F)c(F)c3)nn2)[C@@H](O)[C@@H](CO)O[C@@H]1CC1CC(c2cc[nH]c(=O)c2)=NO1 (mixture of isomers) [Example 2.06]
140 nM	6740 nM	CO[C@@H]1[C@@H](n2cc(-c3cc(F)c(F)c(F)c3)nn2)[C@@H](O)[C@@H](CO)O[C@@H]1CC1CN(C2CCCCC2)C(=O)O1 (mixture of isomers) [Example 5.23, (RS)-3-cyclohexyl-5-(((2R,3R,4S,5R,6R)-5-hydroxy-6-(hydroxymethyl)-3-methoxy-4-(4-(3,4,5-trifluorophenyl)-1H-1,2,3-triazol-1-yl)tetrahydro-2H-pyran-2-yl)methyl)oxazolidin-2-one]
67 nM	760 nM	CO[C@@H]1[C@@H](n2cc(-c3cc(F)c(F)c(F)c3)nn2)[C@@H](O)[C@@H](CO)O[C@@H]1CC1CN(C2CCN(S(=O)(=O)C(C)(C)C)CC2)C(=O)O1 (mixture of isomers) [Example 5.22, (RS)-3-(1-(tert-butylsulfonyl)piperidin-4-yl)-5-(((2R,3R,4S,5R,6R)-5-hydroxy-6-(hydroxymethyl)-3-methoxy-4-(4-(3,4,5-trifluorophenyl)-1H-1,2,3-triazol-1-yl)tetrahydro-2H-pyran-2-yl)methyl)oxazolidin-2-one]
35 nM	640 nM	CO[C@@H]1[C@@H](n2cc(-c3cc(F)c(F)c(F)c3)nn2)[C@@H](O)[C@@H](CO)O[C@@H]1CC1CN(C2CCN(S(=O)(=O)CC(C)C)CC2)C(=O)O1 (mixture of isomers) [Example 5.18, (RS)-5-(((2R,3R,4S,5R,6R)-5-hydroxy-6-(hydroxymethyl)-3-methoxy-4-(4-(3,4,5-trifluorophenyl)-1H-1,2,3-triazol-1-yl)tetrahydro-2H-pyran-2-yl)methyl)-3-(1-(isobutylsulfonyl)piperidin-4-yl)oxazolidin-2-one]
